Source: patent US20030229025A1, “Intranasal administration of MC4-R agonists” (Chiron Corporation, priority 2002, published 2003)
Ends that are not written are not given here.

What was measured:
[1] = test system: ob/ob mice; experiment: Intranasal (IN) efficacy: food intake in fasted ob/ob mice; format: in vivo; conditions: Mus musculus, inhaled or nasal, 4 hour, read-out: % Food Intake Reduction at 4 hour
[2] = test system: ob/ob mice; experiment: as above; format: in vivo; conditions: Mus musculus, inhaled or nasal, 4 hour, read-out: % Food Intake Reduction at 4 hour; remark: listed apart in the source
Protocol: Subjects: ob/ob mice; approximately 10 weeks old males; body weight 50-60 grams.
The mice were divided into the following groups:
1) Mice received only vehicle. The vehicle was one of the following: water, 10 mM phosphate buffer, 5% captisol in 10 mM phosphate buffer (see Table 1 for details).
2) Mice received a compound of an embodiment of the present invention at a dosage of 1 mg/kg.
3) Mice received a compound of an embodiment of the present invention at a dosage of 3 mg/kg.
4) Mice received a compound of an embodiment of the present invention at a dosage of 6 mg/kg. n=6-8 animals per group
Note: For compound 1 and compound 2, the 1 mg/kg group was not included.
Animals were fasted overnight (˜16 hours), and an MC4-R agonist compound as described in Tables 1-3 was administered at 8:30 am next day. The administration volume was […]/50 grams of body weight. The animal was gently held by one hand, and the compound solution was delivered by the other hand using a pipette with fine tips. The rate of delivery was such that the full amount was given in not less than 60 seconds to ensure maximal absorption. Pre-weighed food was given to the animals immediately after dosing, and animals had free access to water throughout the study. Food weighing was performed at 1, 2, 3, 4, and 6 hours after dosing. On occasion, food weighing was also taken at the 8 hour or 24 hour time point. Animals were euthanized using carbon dioxide followed by cervical dislocation at the end of the experiment.
Mice were fasted overnight. At 8:30 am the next morning, they were dosed with 25 μl of vehicle or compound solution by intranasal delivery. The solution was delivered using a pipette with protein loading tips. The rate of delivery was such that the full amount was given in not less than 60 seconds. Mice were fed with pre-weighed food immediately after dosing, and had access to water the entire time. Food weight was measured at 1, 2, 3, 4, 6, and 8 hours following the dosing. Mice were euthanized at the end of the study using CO2 followed by cervical dislocation.

[3] = human subjects, cited from earlier work; for body fat: intranasal administration
[4] = acute intranasal administration; ACTH4-10 1 mg, desacetyl-αMSH 1.68 mg (equimolar); cited from earlier work

Compound: COc1ccc(CCn2cnc3cc(N/C(=N/[C@H]4C[C@H]5C[C@@H]([C@@H]4C)C5(C)C)N4CCN[C@@H](C)C4)ccc3c2=O)c(F)c1 [Compound 12]
- inhibition in vivo at 0.5 mg/kg [1]: 6%
- inhibition in vivo at 1 mg/kg [2]: 22.6%
- inhibition in vivo at 3 mg/kg [2]: 47.2%

Compound: Cc1ccc(CCc2nc3ccc(N/C(=N\[C@H]4C[C@H]5C[C@@H]([C@@H]4C)C5(C)C)N4CCN[C@@H](C)C4)cc3[nH]2)c(C)c1 [Compound 2]
- inhibition in vivo at 3 mg/kg [2]: 23.7%
- inhibition in vivo at 6 mg/kg [2]: 1.7%

Compound: C[C@@H]1[C@@H](/N=C(/Nc2ccc(C(=O)OCCc3ccc(Cl)cc3Cl)cc2)N2C[C@@H](C)N[C@@H](C)C2)C[C@H]2C[C@@H]1C2(C)C [Compound 7]
- inhibition in vivo at 1 mg/kg [2]: 23.5%
- inhibition in vivo at 3 mg/kg [2]: 42.7%
- inhibition in vivo at 6 mg/kg [2]: 85.5%

Compound: MSH/ACTH4-10: melanocyte stimulating hormone/adrenocorticotropin4-10; behaviorally active fragment of ACTH (MEHFRWG; Corticotropin; UniProt P01189 141-147, looked up, fragment)
- plasma leptin levels and insulin levels ([3]; after intranasal administration): decreased
- body fat [3]: reduced body fat
- processing negativity (PN) of the ERP over frontal and central cortical areas [4]: reduced the processing negativity

Compound: CCOC(=O)c1ccc(N/C(=N/[C@H]2C[C@H]3C[C@@H]([C@@H]2C)C3(C)C)N2C[C@@H](C)N[C@@H](C)C2)cc1 [Compound 8]
- inhibition in vivo at 1 mg/kg [2]: 37.8%
- inhibition in vivo at 3 mg/kg [2]: 60%
- inhibition in vivo at 6 mg/kg [2]: 84.1%

Compound: COc1ccc(CCNC(=O)c2ccc(N/C(=N/[C@H]3C[C@H]4C[C@@H]([C@@H]3C)C4(C)C)N3C[C@H](C)N[C@@H](C)C3)nc2)c(F)c1 [Compound 9]
- inhibition in vivo at 1 mg/kg [2]: 35.2%
- inhibition in vivo at 3 mg/kg [2]: 70.2%
- inhibition in vivo at 6 mg/kg [2]: 69.6%

Compound: COc1ccc(CCNC(=O)c2ccc(N/C(=N/[C@H]3C[C@H]4C[C@@H]([C@@H]3C)C4(C)C)N3CCN[C@@H](C)C3)cc2)c(F)c1 [Compound 1]
- inhibition in vivo at 3 mg/kg [2]: 59%
- inhibition in vivo at 6 mg/kg [2]: 91.5%

Compound: desacetyl-αMSH: melanocortin peptide intranasally administered in the cited studies of Fehm et al. and Smolnik et al. (SYSMEHFRWGKPV; ends and bridges not checked; UniProt P01189 138-150, looked up)
- body fat [3]: nonsignificant
- processing negativity (PN) of the ERP over frontal and central cortical areas [4]: ineffective

Compound: COc1ccc(CCN2CCc3cc(N/C(=N/[C@H]4C[C@H]5C[C@@H]([C@@H]4C)C5(C)C)N4CCN[C@@H](C)C4)ccc3C2=O)c(F)c1 [Compound 10]
- inhibition in vivo at 1 mg/kg [2]: 14.2%
- inhibition in vivo at 3 mg/kg [2]: 39.7%

Compound: C[C@@H]1[C@@H](/N=C(/Nc2ccc(C(=O)N[C@H](CO)Cc3ccc(Cl)cc3Cl)cn2)N2C[C@@H](C)N[C@@H](C)C2)C[C@H]2C[C@@H]1C2(C)C [Compound 11]
- inhibition in vivo at 0.5 mg/kg [1]: -3.8%
- inhibition in vivo at 1 mg/kg [2]: 27.7%
- inhibition in vivo at 3 mg/kg [2]: 82%

Compound: COc1ccc(CCNC(=O)c2ccc(N/C(=N/[C@H]3C[C@H]4C[C@@H]([C@@H]3C)C4(C)C)N3C[C@@H](C)N[C@@H](C)C3)cc2)c(F)c1 [Compound 3]
- inhibition in vivo at 1 mg/kg [2]: -3%
- inhibition in vivo at 3 mg/kg [2]: 63.8%
- inhibition in vivo at 6 mg/kg [2]: 70.3%

Compound: C[C@@H]1[C@@H](/N=C(\Nc2ccc(NC(=O)CCc3ccc(Cl)cc3Cl)cc2)N2CCN[C@@H](C)C2)C[C@H]2C[C@@H]1C2(C)C [Compound 6]
- inhibition in vivo at 1 mg/kg [2]: -11.9%
- inhibition in vivo at 3 mg/kg [2]: 21.3%
- inhibition in vivo at 6 mg/kg [2]: 57.4%

Compound: C[C@@H]1[C@@H](/N=C(\Nc2ccc3[nH]c(CCc4ccc(Cl)cc4Cl)nc3c2)N2CCN[C@@H](C)C2)C[C@H]2C[C@@H]1C2(C)C [Compound 5]
- inhibition in vivo at 1 mg/kg [2]: 10.4%
- inhibition in vivo at 3 mg/kg [2]: 53.1%
- inhibition in vivo at 6 mg/kg [2]: 67.3%
